Literature values in patent US7981605B2, “Epidermal growth factor receptor mutations” (Amgen Inc., priority 2005, dated 2011).

Assays:
A431 tumor xenografts = details: athymic mice
[1] = system: NSCLC tumors with EGFr mutations; details: deletions in amino acids 746-759 region, L858R, L861Q, G719C, G719S, R776C/L858R (Lynch, Paez, Pao 2004)

Compound | formation of A431 xenografts (A431 tumor xenografts) | sensitivity of NSCLC tumors with EGFr mutations [1]
panitumumab: a human IgG2 monoclonal antibody against human EGFr; human anti-EGFr antibody (Amgen) | preventing the formation of human epidermoid carcinoma A431 xenografts | –
C#Cc1cccc(Nc2ncnc3cc(OCCOC)c(OCCOC)cc23)c1 [erlotinib, N-(3-ethynylphenyl)-6,7-bis(2-methoxyethoxy)-4-quinazolinamine] | – | display sensitivity
